Laboratory results: patent US20080249077A1, “17.Beta.-Fluoromethoxycarbonyl-Androst-4-En-3-One Compounds With a 17.Alpha.-Carbonate Sustituent” (priority 2005, published 2008)

Legend:
Format in all cases: cell-based
glucocorticoid receptor [1] = biological target: T1, glucocorticoid receptor (Homo sapiens, UniProt P04150); assay: Assay for transrepression activity of the glucocorticoid agonists (NF-κB responsive ELAM promoter-sPAP reporter, TNF-stimulated A549 cells); conditions: compound 1 hour at 37° C., then TNF 10 ng/ml for 16 hours, read-out: pIC50 (transrepression) (converted)
T1 construct: A549 cells stably transfected with a reporter gene; endogenous in cells; host or cells: A549 cells
T1 sequence (P04150 1-777): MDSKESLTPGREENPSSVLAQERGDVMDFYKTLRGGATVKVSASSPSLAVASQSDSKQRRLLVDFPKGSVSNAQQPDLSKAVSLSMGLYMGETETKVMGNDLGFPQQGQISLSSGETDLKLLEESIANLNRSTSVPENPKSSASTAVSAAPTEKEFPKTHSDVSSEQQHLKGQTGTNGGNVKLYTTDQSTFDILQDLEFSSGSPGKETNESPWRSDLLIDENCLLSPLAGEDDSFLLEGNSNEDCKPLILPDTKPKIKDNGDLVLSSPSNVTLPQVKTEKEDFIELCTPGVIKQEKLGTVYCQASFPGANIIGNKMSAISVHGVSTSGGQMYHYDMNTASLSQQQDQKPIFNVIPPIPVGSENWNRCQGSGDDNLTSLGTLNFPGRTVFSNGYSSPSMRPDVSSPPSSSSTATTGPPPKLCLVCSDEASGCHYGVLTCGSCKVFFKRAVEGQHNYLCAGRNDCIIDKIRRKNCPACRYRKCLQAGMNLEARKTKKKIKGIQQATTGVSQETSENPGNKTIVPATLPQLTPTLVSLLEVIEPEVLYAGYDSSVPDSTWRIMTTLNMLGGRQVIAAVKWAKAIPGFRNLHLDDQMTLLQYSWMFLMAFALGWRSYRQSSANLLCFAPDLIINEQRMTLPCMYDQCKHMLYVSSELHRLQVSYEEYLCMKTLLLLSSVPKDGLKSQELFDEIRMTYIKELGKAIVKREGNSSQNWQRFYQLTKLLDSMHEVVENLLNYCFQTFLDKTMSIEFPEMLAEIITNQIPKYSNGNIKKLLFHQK
Experimental: Assay for Transrepression Activity of the Glucocorticoid Agonists
A549 cells stably transfected with a reporter gene containing the NF-κB responsive elements from the ELAM gene promoter coupled to sPAP (secreted alkaline phosphatase) are treated with test compounds at appropriate doses for 1 hour at 37° C. The cells are then stimulated with tumour necrosis factor (TNF, 10 ng/ml) for 16 hours, at which time the amount of alkaline phosphatase produced is measured by a standard colourimetric assay. Dose response curves were constructed from which EC50 values were estimated.

Progesterone Receptor = biological target: T2, Progesterone Receptor (Homo sapiens, UniProt P06401); assay: Assay for progesterone receptor activity (CV-1 cells transduced with PRb-BacMam and MMTV-BacMam, Steady Glo); conditions: 24 h, read-out: pEC50 (progesterone receptor) (converted)
T2 construct: expressed in transfected cells; host or cells: CV-1 cells transduced with PRb-BacMam
T2 sequence (P06401 1-933): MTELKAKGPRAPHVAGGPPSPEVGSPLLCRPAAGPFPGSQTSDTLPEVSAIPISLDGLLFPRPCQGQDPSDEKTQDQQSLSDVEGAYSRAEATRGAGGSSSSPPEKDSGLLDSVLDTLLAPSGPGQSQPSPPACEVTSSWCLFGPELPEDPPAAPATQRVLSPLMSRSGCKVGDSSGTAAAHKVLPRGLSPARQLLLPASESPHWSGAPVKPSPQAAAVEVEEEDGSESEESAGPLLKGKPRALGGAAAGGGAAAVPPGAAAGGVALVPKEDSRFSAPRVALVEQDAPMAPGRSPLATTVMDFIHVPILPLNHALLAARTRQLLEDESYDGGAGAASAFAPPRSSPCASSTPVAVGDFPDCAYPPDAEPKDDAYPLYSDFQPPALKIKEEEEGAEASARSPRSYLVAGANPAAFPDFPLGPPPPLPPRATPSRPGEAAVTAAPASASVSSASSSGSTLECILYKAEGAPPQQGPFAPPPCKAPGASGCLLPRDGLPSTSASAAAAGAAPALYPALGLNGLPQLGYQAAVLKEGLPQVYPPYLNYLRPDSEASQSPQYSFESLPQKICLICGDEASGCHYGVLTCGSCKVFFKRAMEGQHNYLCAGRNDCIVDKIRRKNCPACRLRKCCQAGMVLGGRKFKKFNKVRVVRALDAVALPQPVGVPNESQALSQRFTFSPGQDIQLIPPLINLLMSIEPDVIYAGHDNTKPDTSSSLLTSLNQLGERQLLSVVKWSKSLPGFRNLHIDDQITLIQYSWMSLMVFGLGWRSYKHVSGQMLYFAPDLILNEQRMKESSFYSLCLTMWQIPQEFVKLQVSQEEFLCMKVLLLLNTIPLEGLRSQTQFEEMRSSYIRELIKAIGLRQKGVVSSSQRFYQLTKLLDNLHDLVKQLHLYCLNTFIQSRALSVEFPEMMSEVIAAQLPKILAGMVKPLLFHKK
Experimental: Assay for Progesterone Receptor Activity
Cells were diluted in DMEM containing 10% Hyclone, 2 mM […] and 1% Pen/Strep at 140 cells/μl and transduced with 10% PRb-BacMam and 10% MMTV-BacMam. […] of suspension cells were dispensed to each well of white Nunc 384-well plates, containing compounds at the required concentration. After 24 h 10 μl of Steady Glo were added to each well of the plates. Plates were incubated in the dark for 10 min before reading them on a Viewlux reader. Dose response curves were constructed from which pEC50 values were estimated.

glucocorticoid receptor [2] = biological target: T1, glucocorticoid receptor; assay: Assay for transactivation activity of the glucocorticoid agonists (MMTV-LTR renilla luciferase reporter in A549 cells); conditions: compound 6 hour at 37° C., read-out: maximal response relative to Dexamethasone (100%) (transactivation)
Experimental: Assay for Transactivation Activity of the Glucocorticoid Agonists
The functional assay based on that described by R. J. H. Austin et al., Eur Resp J. (2002), 20, 1386-1392 measures the ability of compounds to directly transactivate gene expression. A549 cells stably transfected with a reporter gene containing the glucocorticoid responsive region of the mouse mammary tumour virus long terminal repeat (MMTV-LTR) coupled to renilla luciferase were treated with test compounds at appropriate doses for 6 hour at 37° C. The amount of luciferase activity present within the cells is then determined by measuring the light emitted following incubation with a suitable substrate. Dose response curves were constructed from which EC50 values were estimated and from which maximal responses are calculated relative to Dexamethasone (100%).

| SMILES | IC50 (glucocorticoid receptor [1]) [nM] | EC50 (Progesterone Receptor) [nM] | Emax (glucocorticoid receptor [2]) [%] |
| --- | --- | --- | --- |
| CCC(C)(C)OC(=O)O[C@]1(C(=O)OCF)[C@H](C)C[C@H]2[C@@H]3C[C@H](F)C4=CC(=O)C=C[C@]4(C)[C@@]3(F)[C@@H](O)C[C@@]21C [Example 2, Fluoromethyl(6α,11β,16α,17α)-17-({[(1,1-dimethylpropyl)oxy]carbonyl}oxy)-6,9-difluoro-11-hydroxy-16-methyl-3-oxoandrosta-1,4-diene-17-carboxylate] | < 0.1 | > 10 | – |
| CCC(OC(=O)O[C@]1(C(=O)OCF)[C@H](C)C[C@H]2[C@@H]3C[C@H](F)C4=CC(=O)C=C[C@]4(C)[C@@]3(F)[C@@H](O)C[C@@]21C)C(C)C (stereo partly drawn) [Example 8, Fluoromethyl(6α,11β,16α,17α)-17-({[(1-ethyl-2-methylpropyl)oxy]carbonyl}oxy)-6,9-difluoro-11-hydroxy-16-methyl-3-oxoandrosta-1,4-diene-17-carboxylate] | < 0.1 | > 10 | < 25 |
| C[C@@H]1C[C@H]2[C@@H]3C[C@H](F)C4=CC(=O)C=C[C@]4(C)[C@@]3(F)[C@@H](O)C[C@]2(C)[C@@]1(OC(=O)OC1CCCCCC1)C(=O)OCF [Example 14, Fluoromethyl(6α,11β,16α,17α)-17-{[(cycloheptyloxy)carbonyl]oxy}-6,9-difluoro-11-hydroxy-16-methyl-3-oxoandrosta-1,4-diene-17-carboxylate] | – | > 10 | < 25 |
| C[C@@H]1C[C@H]2[C@@H]3C[C@H](F)C4=CC(=O)C=C[C@]4(C)[C@@]3(F)[C@@H](O)C[C@]2(C)[C@@]1(OC(=O)O[C@@H]1[C@@H]2CC[C@@H](C2)C1(C)C)C(=O)OCF [Example 30, Fluoromethyl(6α,11β,16α,17α)-17-[({[(1R,2R,4S)-3,3-dimethylbicyclo[2.2.1]hept-2-yl]oxy}carbonyl)oxy]-6,9-difluoro-11-hydroxy-16-methyl-3-oxoandrosta-1,4-diene-17-carboxylate] | < 0.1 | > 10 | < 25 |
| CC(C)[C@H]1CC[C@H](C)C[C@@H]1OC(=O)O[C@]1(C(=O)OCF)[C@H](C)C[C@H]2[C@@H]3C[C@H](F)C4=CC(=O)C=C[C@]4(C)[C@@]3(F)[C@@H](O)C[C@@]21C [Example 32, Fluoromethyl(6α,11β,16α,17α)-6,9-difluoro-11-hydroxy-16-methyl-17-[({[(1 S,2R,5S)-5-methyl-2-(1-methylethyl)cyclohexyl]oxy}carbonyl)oxy]-3-oxoandrosta-1,4-diene-17-carboxylate] | – | > 10 | < 25 |
| C[C@@H]1[C@H]2C[C@@H](C[C@H]1OC(=O)O[C@]1(C(=O)OCF)[C@H](C)C[C@H]3[C@@H]4C[C@H](F)C5=CC(=O)C=C[C@]5(C)[C@@]4(F)[C@@H](O)C[C@@]31C)C2(C)C [Example 34, Fluoromethyl(6α,11β,16α,17α)-6,9-difluoro-11-hydroxy-16-methyl-3-oxo-17-[({[(1R,2R,3R,5S)-2,6,6-trimethylbicyclo[3.1.1]hept-3-yl]oxy}carbonyl)oxy]androsta-1,4-diene-17-carboxylate] | – | > 10 | < 25 |
| CCC(OC(=O)O[C@]1(C(=O)OCF)[C@H](C)C[C@H]2[C@@H]3C[C@H](F)C4=CC(=O)C=C[C@]4(C)[C@@]3(F)[C@@H](O)C[C@@]21C)C(C)(C)C (stereo partly drawn) [Example 38, Fluoromethyl(6α,11β,16α,17α)-17-({[(1-ethyl-2,2-dimethylpropyl)oxy]carbonyl}oxy)-6,9-difluoro-11-hydroxy-16-methyl-3-oxoandrosta-1,4-diene-17-carboxylate] | – | > 10 | < 25 |
